# Laboratory results from patent publication US8178579B2, “Dioxanes and uses thereof” (President and Fellows of Harvard College, priority 2001, dated 2012).
# Entries after “also recorded” stand apart in the source; their conditions may differ.
# What was measured:
# [1] = tested on: HDAC6; assay: acetylated α-tubulin and HDAC6 immunofluorescence in control (Neo) and HDAC6-overexpressing fibroblasts; format: cell-based, mouse; details: tubacin 2 μM, 4 h
# Method: All cells were cultured at 37° C. in a humidified incubator supplemented with 5% carbon dioxide. […] Mouse NIH-3T3 wild-type (Neo), HDAC6, HDAC6 double mutant, and HDAC1 overexpressing cells (gift from C. Hubbert, Duke University) were cultured as described (C. Hubbert et al., Nature 417, 455 (2002)1).
# Detection of acetylated α-tubulin and acetylated histones by immunofluorescence was performed as described in Example 6 above. […] HDAC6 was detected using a rabbit polyclonal antibody (1:250-1:750; C.M.G., unpublished data) under the conditions used to detect acetylated α-tubulin (See Example 6 above). […] Images for these experiments were collected on a Zeiss LSM510 confocal scanning laser microscope at the appropriate wavelengths using the accompanying software and processed with Adobe Photoshop.
# [2] = molecular target: T1, HDAC6 (Homo sapiens, UniProt Q9UBN7); assay: in vitro enzyme inhibition assay (Fluor de Lys deacetylation) of HDAC1, 4 and 6; format: biochemical; set-up: endogenous in cells; host or cells: A549 cells; details: in vitro enzyme inhibition (FIG. 13)
# T1 sequence (Q9UBN7 1-1215): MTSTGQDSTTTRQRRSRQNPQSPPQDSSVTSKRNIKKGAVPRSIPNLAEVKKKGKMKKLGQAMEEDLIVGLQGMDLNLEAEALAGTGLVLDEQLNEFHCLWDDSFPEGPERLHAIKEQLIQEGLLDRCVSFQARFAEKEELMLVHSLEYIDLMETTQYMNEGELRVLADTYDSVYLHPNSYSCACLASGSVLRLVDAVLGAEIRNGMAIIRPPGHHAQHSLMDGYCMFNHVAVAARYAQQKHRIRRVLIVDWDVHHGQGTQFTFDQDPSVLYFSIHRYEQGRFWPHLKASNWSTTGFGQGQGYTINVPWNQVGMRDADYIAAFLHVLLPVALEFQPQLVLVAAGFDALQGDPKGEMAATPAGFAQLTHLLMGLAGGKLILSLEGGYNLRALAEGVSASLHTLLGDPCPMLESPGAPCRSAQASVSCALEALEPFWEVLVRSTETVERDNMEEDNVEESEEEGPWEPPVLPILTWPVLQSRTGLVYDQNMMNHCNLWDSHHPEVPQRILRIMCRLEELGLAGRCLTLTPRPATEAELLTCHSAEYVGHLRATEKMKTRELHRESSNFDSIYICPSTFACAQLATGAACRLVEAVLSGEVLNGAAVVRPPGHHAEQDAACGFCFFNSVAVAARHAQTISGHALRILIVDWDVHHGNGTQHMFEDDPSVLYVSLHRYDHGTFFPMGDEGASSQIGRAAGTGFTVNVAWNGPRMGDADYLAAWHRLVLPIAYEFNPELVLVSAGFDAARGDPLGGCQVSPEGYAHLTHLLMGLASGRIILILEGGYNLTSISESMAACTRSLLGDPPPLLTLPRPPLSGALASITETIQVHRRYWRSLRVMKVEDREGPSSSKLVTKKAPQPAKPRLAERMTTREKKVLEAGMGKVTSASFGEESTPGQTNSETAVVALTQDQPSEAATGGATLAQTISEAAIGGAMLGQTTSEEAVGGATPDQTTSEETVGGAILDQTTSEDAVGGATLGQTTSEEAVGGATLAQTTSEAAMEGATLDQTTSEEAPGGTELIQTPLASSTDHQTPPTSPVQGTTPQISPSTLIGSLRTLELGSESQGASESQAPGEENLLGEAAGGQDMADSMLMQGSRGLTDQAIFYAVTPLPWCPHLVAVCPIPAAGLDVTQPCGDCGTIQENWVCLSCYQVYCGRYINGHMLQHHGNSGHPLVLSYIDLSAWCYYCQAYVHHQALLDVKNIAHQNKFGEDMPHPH
# [3] = tested on: HT-1080 cells; assay: F-actin staining by fluorescence microscopy; format: cell-based; details: human fibrosarcoma cells, 20 μM, 39 h
# Method: (§1) Detection of acetylated α-tubulin and acetylated histones by immunofluorescence was performed as described in Example 6 above. For determining microtubule stability, A549 cells were treated as indicated, fixed in glutaraldehyde, and stained for acetylated α-tubulin and total α-tubulin in antibody dilution buffer (ADB, Tris-buffered saline (TBS), 0.15 M NaCl, 0.02 M Tris-Cl, pH 7.4, with 2% bovine serum albumin and 0.1% Triton-X 100). For cold-depolymerization, cells were incubated at 4° C. or 37° C. for an additional 90 minutes before fixation. […] For co-localization experiments, biotubacin (50 μM) treated A549 cells were fixed in 3.7% formaldehyde in TBS and processed as for detecting acetylated α-tubulin (See Example 6 above) with biotubacin detected using streptavidin-TR (1:500). HDAC6 was detected using a rabbit polyclonal antibody (1:250-1:750; C.M.G., unpublished data) under the conditions used to detect acetylated α-tubulin (See Example 6 above). Filamentous actin in HT-1080 cells was detected using TR-conjugated phalloidin (1 μg/mL), and depolymerized actin using FITC-conjugated deoxyribonuclease (10 μg/mL), following fixation in 3.7% formaldehyde in TBS. p58 (1:100) in NIH-3T3 cells was detected after fixation in 3.7% formaldehyde in TBS. […]
# [4] = tested on: α-tubulin; assay: total and tyrosinated α-tubulin levels in cells; format: cell-based; details: tubacin 2 μM, 4 h
# Method: as §1
# [5] = tested on: NIH-3T3 cells; assay: Transwell cell migration assay; format: cell-based, mouse; details: wild-type (Neo) and HDAC6-overexpressing cells, 22 h; tubacin 2-20 μM, niltubacin 20 μM
# Method: For Transwell migration assays, wild-type or HDAC6 overexpressing NIH-3T3 cells were seeded (150,000 cells/well) in the upper chamber (uncoated polycarbonate membrane, 6.5 mm, 8 μm) in DMEM+ media with compounds added as indicated. After incubation (22 hours), non-migrated cells were removed using cotton swabs and remaining cells stained in Harris Hematoxylin solution. For each treatment, cells within a region (spanning the maximum diameter) of three separate membranes were counted under low magnification on a Leitz Laborlux microscope. For DMSO treatments the average count was ˜600 cells/region. Images were obtained using a Hitachi HV-C12 CCD camera.
smiles,measurement,setting,value
O=C(CCCCCCC(=O)Nc1ccc([C@@H]2OC(c3ccc(CO)cc3)C[C@H](CSc3nc(-c4ccccc4)c(-c4ccccc4)o3)O2)cc1)NO (stereo partly shown) [tubacin],co-localization of HDAC6 with acetylated microtubules,[1]; NIH-3T3 (Neo),Increased co-localization of HDAC6 with acetylated α-tubulin; also recorded: caused an increase in the co-localization of HDAC6 along acetylated microtubules
same,α-tubulin acetylation in control (Neo) versus HDAC6-overexpressing NIH-3T3 cells,[1],Decreased α-tubulin acetylation upon tubacin (2 μM) treatment (4 h) of HDAC6 overexpressing compared to control (Neo) NIH-3T3 cells; also recorded: induced an increase in α-tubulin acetylation; also recorded: decreased tubucin-induced α-tubulin acetylation
same,selectivity for HDAC6 over HDAC1 and HDAC4,[2],3 fold
same,F-actin microfilaments / actin stress fibers,[3],increases F-actin microfilaments; also recorded: caused an increase in the abundance of actin stress fibers
same,level of total α-tubulin,[4],No effect of tubacin (2 μM) treatment (4 h) on the levels of α-tubulin; also recorded: did not affect the level of total α-tubulin or the level of α-tubulin containing a carboxy-terminal tyrosine
same,level of tyrosinated α-tubulin,[4],No effect of tubacin (2 μM) treatment (4 h) on the levels of tyrosinated tubulin; also recorded: did not affect the level of total α-tubulin or the level of α-tubulin containing a carboxy-terminal tyrosine
same,cell migration,[5],inhibited the migration of wild-type (Neo) NIH-3T3 cells; also recorded: inhibited the migration of both wild-type and HDAC6-overexpressing cells
